This is an account of results in patent US20240335427A1, “SMALL MOLECULE INHIBITION OF DEUBIQUITINATING ENZYME JOSEPHIN DOMAIN CONTAINING 1 (JOSD1) AS A TARGETED THERAPY FOR LEUKEMIAS WITH MUTANT JANUS KINASE 2 (JAK2)” (DANA-FARBER CANCER INSTITUTE, INC., priority 2021, published 2024).

In experiment [1] the target is JOSD1 (Homo sapiens (Human), UniProt Q15040). The experiment is described as follows: In vitro JOSD1 activity assay (biochemical IC50, purified enzyme). Conditions: read-out: JOSD1 IC50.
Description: In vitro JOSD1 activity assay & Ubiquitin-7-amido-4-methylcoumarin (AMC) assay. In vitro JOSD1 activity assay was carried out with Ubiquitin-AMC assay. […] Recombinant JOSD1 was tested for activity in a Ubiquitin-AMC assay in the presence or absence of inhibitors. […] The reaction was incubated for 6 hours at room temperature prior to the addition of 2 μM Ubiquitin-AMC (Boston Biochem) substrate. The initial rate of the reaction was measured by collecting fluorescence data at one-minute intervals over a 30-minute period using a Clariostar® fluorescence plate reader at excitation and emission wavelengths of 345 and 445 nm, respectively. The calculated initial rate values were plotted against inhibitor concentrations to determine IC50 values.
In vitro JOSD1 activity assay. Recombinant full-length JOSD1 was tested for activity in a Ubiquitin-AMC assay in the presence or absence or inhibitors. For this assay, 10 nM JOSD1 was pre-incubated with different concentrations of inhibitors or DMSO as a control in 50 mM Tris 8.0, 0.5 mM EDTA, 10 mM ovalbumin, 5 mM DTT. The reaction was incubated for 6 h at room temperature prior to the addition of 2 mM Ubiquitin-AMC (Boston Biochem) substrate. The initial rate of the reaction was measured by collecting fluorescence data at one-minute intervals over a 30-minute period using a CLARIOstar® fluorescence plate reader at excitation and emission wavelengths of 345 and 445 nm, respectively. The calculated initial rate values were plotted against inhibitor concentrations to determine IC50 values.
JOSD1 biochemical inhibition was investigated for the analogs shown using the fluorescent substrate ubiquitin-rhodamine against purified enzyme in a continuous kinetic assay.
Experiment [2] addresses UCHL1 (Homo sapiens (Human), UniProt P09936). The experiment in a line: UCHL1 biochemical inhibition (ubiquitin hydrolase activity, purified enzyme).
For experiment [3], the system named is JAK2-V617F-positive primary AML patient samples. The experiment in a line: AML liquid culture proliferation, primary patient samples. It is filed as cell-based, human. Conditions: 1 μM. An excerpt:
AML liquid culture proliferation and colony assay studies. Frozen vials of bone marrow from AML patients identified as harboring JAK2-V617F were previously Ficoll®-purified to obtain mononuclear cells and thawed prior to use in studies.

Sequence of UCHL1 (P09936 whole entry, species assumed): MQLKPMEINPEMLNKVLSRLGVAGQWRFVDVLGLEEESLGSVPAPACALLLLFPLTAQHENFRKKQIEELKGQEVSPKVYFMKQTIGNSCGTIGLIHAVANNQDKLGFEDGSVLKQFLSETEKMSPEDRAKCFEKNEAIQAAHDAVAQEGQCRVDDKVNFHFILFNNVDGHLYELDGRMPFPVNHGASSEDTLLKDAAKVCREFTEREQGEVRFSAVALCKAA

`N#CN1CCC(C(=O)Nc2nc3ccc(C4CC4)cc3s2)C1` (stereo in doubt) [Compound 8, (R)-1-cyano-N-(6-cyclopropylbenzo[d]thiazol-2-yl)pyrrolidine-3-carboxamide]: the IC50 was determined as 99 nM in experiment [1] and 12 nM in experiment [2].

Consider `Cc1noc(C)c1-c1ccc2sc(NC(=O)[C@H]3CCN(C#N)C3)nc2c1` [Compound 4, (S)-1-cyano-N-(5-(3,5-dimethylisoxazol-4-yl)benzo[d]thiazol-2-yl)pyrrolidine-3-carboxamide], for which the IC50 in experiment [1] is 45 nM.

Take `Cc1noc(C)c1-c1cccc2sc(NC(=O)[C@H]3CCN(C#N)C3)nc12` [Compound 5, (S)-1-cyano-N-(4-(3,5-dimethylisoxazol-4-yl)benzo[d]thiazol-2-yl)pyrrolidine-3-carboxamide]: the IC50 in experiment [1] is 74 nM.

As for `CCn1cc(-c2ccc3nc(NC(=O)[C@@H]4CCN(C#N)C4)sc3c2)cn1` [Compound 6, (R)-1-cyano-N-(6-(1-ethyl-1H-pyrazol-4-yl)benzo[d]thiazol-2-yl)pyrrolidine-3-carboxamide], the concentration for half-maximal inhibition (IC50) in experiment [1] worked out at 82 nM.

`N#CN1CC[C@H](C(=O)Nc2ccc3c(cnn3Cc3ccccc3)c2)C1` [Compound 10, (S)—N-(1-benzyl-1H-indazol-5-yl)-1-cyanopyrrolidine-3-carboxamide]: the IC50 in experiment [1] turned out to be 160 nM.

As for `N#CN1CC[C@H](C(=O)Nc2nc(-c3ccccc3)cs2)C1` [Compound 11, (S)-1-cyano-N-(4-phenylthiazol-2-yl)pyrrolidine-3-carboxamide], the half-inhibitory concentration (IC50) in experiment [1] was 160 nM.

As to `Cc1noc(C)c1-c1ccc2nc(NC(=O)[C@H]3CCN(C#N)C3)sc2c1` [Compound 12], the figures for the IC50 in experiment [1] and in experiment [2] were 244 nM and 100 nM, respectively.

Turning to `N#CN1CC[C@@H](C(=O)Nc2nc3ccc(-c4ccc(-c5ccccc5)cc4)cc3s2)C1` [Compound 14, (R)—N-(6-([1,1′-biphenyl]-4-yl)benzo[d]thiazol-2-yl)-1-cyanopyrrolidine-3-carboxamide], in experiment [1], the IC50 was found to be 270 nM.

As to `N#CN1CC[C@H](C(=O)Nc2nc3ccc(Br)nc3s2)C1` [Compound 15, (S)—N-(5-bromothiazolo[5,4-b]pyridin-2-yl)-1-cyanopyrrolidine-3-carboxamide], the figures for the half-maximal inhibitory concentration (IC50) in experiment [1] and in experiment [2] were 288 nM and 2000 nM, respectively.

With `Cc1cccc2sc(NC(=O)[C@H]3CCN(C#N)C3)nc12` [Compound 18, (S)-1-cyano-N-(4-methylbenzo[d]thiazol-2-yl)pyrrolidine-3-carboxamide], the concentration for half-maximal inhibition (IC50) in experiment [1] was 380 nM.

As to `Cc1noc(C)c1-c1ccc2nc(NC(=O)[C@H]3CCN(C#N)C3)sc2n1` [Compound 19], the figures for the IC50 in experiment [1] and in experiment [2] were 420 nM and 90 nM, respectively.

Regarding `N#CN1CC[C@H](NC(=O)c2nc3ccccc3s2)C1` [Compound 20], the half-maximal inhibitory concentration (IC50) in experiment [1] came out at 430 nM; in experiment [2], 2060 nM.

With `Cc1noc(C)c1-c1ccc2cnc(NC(=O)[C@H]3CCN(C#N)C3)cc2c1` [Compound 21], in experiment [1], the half-maximal inhibitory concentration (IC50) was found to be 460 nM.

Take `N#CN1CC[C@H](C(=O)Nc2nc3ccc(-c4c[nH]nc4C(F)(F)F)cc3s2)C1` [Compound 22, (S)-1-cyano-N-(6-(3-(trifluoromethyl)-1H-pyrazol-4-yl)benzo[d]thiazol-2-yl)pyrrolidine-3-carboxamide]: the half-inhibitory concentration (IC50) in experiment [1] was 520 nM.

As for `Cc1noc(C)c1-c1ccc2nc(NC(=O)[C@@H]3CCN(C#N)C3)sc2c1` [Compound 24], the 50% inhibitory concentration (IC50) amounted to 690 nM in experiment [1] and 1850 nM in experiment [2].

Consider `N#CN1CC[C@H](C(=O)Nc2ccn(Cc3ccccc3)c2)C1` [Compound 25], for which the IC50 is 931 nM in experiment [1] and 8900 nM in experiment [2].

For the compound `N#CN1CCC(C(=O)Nc2nc3c(s2)CN(C(=O)c2ccccc2)CC3)C1` (centres unmarked) [Compound 26], the IC50 in experiment [1] was determined as 1100 nM; in experiment [2] it was 100 nM.

With `N#CN1CC[C@H](C(=O)Nc2cnn(Cc3ccccc3)c2)C1` [Compound 27, (S)—N-(1-benzyl-1H-pyrazol-4-yl)-1-cyanopyrrolidine-3-carboxamide], the 50% inhibitory concentration (IC50) in experiment [1] worked out at 1100 nM.

Turning to `N#CN1CC[C@H](C(=O)Nc2cn(-c3ccccc3)cn2)C1` [Compound 28], the IC50 in experiment [1] stood at 1220 nM; in experiment [2], 155 nM.

`N#CN1CC[C@@H](C(=O)Nc2cn(Cc3ccccc3)cn2)C1` [Compound 29]: it took 2000 nM to reach half-maximal inhibition in experiment [2] (IC50).

Consider `N#CN1CC[C@H](C(=O)Nc2nc3ccccc3[nH]2)C1` [Compound 30, (S)—N-(1H-benzo[d]imidazol-2-yl)-1-cyanopyrrolidine-3-carboxamide], for which the 50% inhibitory concentration (IC50) came to 1370 nM in experiment [1] and 3670 nM in experiment [2].

As to `N#CN1CC[C@H](C(=O)Nc2nc3n(n2)CCN(Cc2ccccc2)C3)C1` [Compound 31], the half-maximal inhibitory concentration (IC50) in experiment [1] stood at 1400 nM; in experiment [2], 2690 nM.

In the case of `N#CN1CC[C@H](C(=O)Nc2cn(Cc3ccccc3)cn2)C1` [Compound 32], the IC50 in experiment [2] is 104 nM.

Regarding `N#CN1CC(C(=O)Nc2nc3ccc(Br)cc3s2)C1` [Compound 33, N-(6-bromobenzo[d]thiazol-2-yl)-1-cyanoazetidine-3-carboxamide], the IC50 in experiment [1] is 1950 nM; in experiment [2], 1830 nM.

Take `Cc1sc(N(C)C(=O)[C@@H]2CCCN2C#N)nc1-c1cccc(C#N)n1` [Compound 34]: the IC50 in experiment [1] came to 2130 nM.

For the compound `Cc1noc(C)c1-c1ccc2nc(NC(=O)C3CCN(C#N)CC3)sc2c1` [Compound 35, 1-Cyano-N-(6-(3,5-dimethylisoxazol-4-yl)benzo[d]thiazol-2-yl)piperidine-4-carboxamide], the IC50 was found to be 2770 nM in experiment [1] and 420 nM in experiment [2].

With `N#CN1CC[C@H](C(=O)Nc2nc3n(n2)CCN(C(=O)c2ccccc2)C3)C1` [Compound 36], the figures for the half-inhibitory concentration (IC50) in experiment [1] and in experiment [2] were 3370 nM and 1340 nM, respectively.

Turning to `N#CN1CC[C@H](C(=O)Nc2cn(C3CCCN(C(=O)c4ccccc4)C3)cn2)C1` (some centres unmarked) [Compound 38], the IC50 in experiment [1] is 4150 nM; in experiment [2], 89 nM.

As for `N#CN1CC[C@H](C(=O)Nc2nc3ccccc3o2)C1` [Compound 39, (S)—N-(benzo[d]oxazol-2-yl)-1-cyanopyrrolidine-3-carboxamide], the IC50 in experiment [1] came out at 4850 nM.

Regarding `Cc1noc(C)c1-c1ccc2nc(NC(=O)[C@H]3CCN(CC#N)C3)sc2c1` [Compound 40, (S)-1-(cyanomethyl)-N-(6-(3,5-dimethylisoxazol-4-yl)benzo[d]thiazol-2-yl)pyrrolidine-3-carboxamide], the values for the 50% inhibitory concentration (IC50) in experiment [1] and in experiment [2] were 5680 nM and 100000 nM, respectively.

For `N#CN1CCc2cc(NC(=O)c3nc4ccccc4s3)ccc21` [Compound 41], the IC50 in experiment [1] was 6070 nM; in experiment [2], 100000 nM.

With `N#CN1CCC[C@H](C(=O)Nc2cn(Cc3ccccc3)cn2)C1` [Compound 42], the half-inhibitory concentration (IC50) in experiment [1] was found to be 6230 nM; in experiment [2], 1080 nM.

Turning to `Cc1noc(C)c1-c1ccc2nc(NC(=O)c3ccnc(C#N)n3)sc2c1` [Compound 43, 2-Cyano-N-(6-(3,5-dimethyl-1λ^3,2λ^2-isoxazol-4-yl)benzo[d]thiazol-2-yl)pyrimidine-4-carboxamide], the IC50 in experiment [1] amounted to 6420 nM.

For `C#CCNC(=O)c1ccc(-c2cnc(NC(=O)[C@H]3CCN(C#N)C3)s2)cc1` [Compound 44, (S)-1-cyano-N-(5-(4-(prop-2-yn-1-ylcarbamoyl)phenyl)thiazol-2-yl)pyrrolidine-3-carboxamide], the IC50 in experiment [1] was found to be 8250 nM.

Take `N#CN1CC(CNC(=O)c2nc3ccccc3s2)C1` [Compound 46, N-((1-cyanoazetidin-3-yl)methyl)benzo[d]thiazole-2-carboxamide]: the half-maximal inhibitory concentration (IC50) in experiment [1] amounted to 11300 nM; in experiment [2] it was 100000 nM.

`Cc1noc(C)c1-c1ccc2nc(NC(=O)C3CN(C#N)C3)sc2c1` [Compound 47, 1-Cyano-N-(6-(3,5-dimethylisoxazol-4-yl)benzo[d]thiazol-2-yl)azetidine-3-carboxamide] registered an IC50 in experiment [2] of 1290 nM.

For the compound `N#CC[C@H](C1CCCC1)n1cc(-c2ncnc3[nH]ccc23)cn1` [ruxolitinib, reference compound], the “efficacy against primary AML cells” value in experiment [3] was “at best modest efficacy”.

One may read the IC50 as the concentration at which inhibition is half-maximal.
